For 21 compounds, IC50 results are on record in patent publication US11878970B2, “Allosteric chromenone inhibitors of phosphoinositide 3-kinase (PI3K) for the treatment of disease” (Petra Pharma Corporation, priority 2021, dated 2024).

Assay [1] addresses T1, PI3K-α (PIK3CA) wild-type (WT), p110α/p85α complex (Homo sapiens, UniProt P42336).
T1 construct: Recombinant, catalytically active human full length PIK3KA Wild-type and H1047R mutant; 6×His (N); purchased EMD Millipore Sigma 14-602M
In words: PI3K-alpha kinase (PIK3CA) biochemical activity, ADP-Glo, wild-type. The following applies: Soy PI lipid substrate. From the text:
(§1) PI3K-Alpha Kinase (PIK3CA) Activity, Wild-Type and H1047R Mutant and Determining IC50 Values for Inhibitors
(§2) Recombinant, catalytically active human full length PIK3KA Wild-type and H1047R mutant were purchased as 1:1 complex of N-terminal 6×his tagged p110α (catalytic) and untagged p85α (regulatory subunit) from EMD Millipore Sigma (cat. no. 14-602M and 14-792M, respectively). PIP2diC8 (Avanti Polar Lipids Inc., cat. no. 850185) or Soy PI (Avanti Polar Lipids Inc., cat. No. 840044P) was used as lipid substrate. PIP2diC8 or PI lyophilized powder was dissolved in milliQ water to a concentration of 1 mM just before use. 10 mM stock compounds in DMSO were serially diluted 1:3 to generate a 10-point curve and plated using an acoustic liquid handler system (Echo 550 series instrument, Labcyte). A 10× intermediate compound plate (200 uM starting compound concentration and 10% DMSO) was prepared before starting the reaction. A typical reaction mixture (50 uL) comprised 40 mM HEPES buffer, pH 7.4, 25 mM MgCl2, 0.01% v/v triton-X-100, 1% v/v DMSO, 20 mM NaCl, 1-5 nM WT or H1047R PI3K protein, 20 uM ATP, and 50 uM PIP2diC8 or Soy PI. 1% DMSO buffer alone without test compound was employed as MAX control (full activity in the absence of any inhibitor), and no enzyme control was used to determine the level of background Adenosine 5′-diphosphate (ADP) (MIN control). First, Wild-type (WT) and H1047R mutant protein in kinase buffer with all components except ATP were incubated with or without compound at 27° C. for 1 h. After the pre-incubation, the reaction was initiated by the addition of 20 uL of 50 uM ATP (20 uM final concentration). The reaction was allowed to proceed until about 10% conversion of ATP (2 uM ADP) at 27° C. After that time, 5 uL of reaction was mixed with 5 uL of ADP-Kinase Glo Reagent (ADP-Glo Kinase assay kit, Promega cat. no. V9102) supplemented with MgCl2 10 mM to stop the reaction and deplete the remaining ATP for 40 min at room temperature. Then, 10 uL of Kinase Detection Reagent (ADP-Glo Kinase assay kit, Promega cat. no. V9102) was added to simultaneously convert ADP to ATP and allow the newly synthesized ATP to be measured using a luciferase/luciferin reaction. After 30 min at room temperature the light generated was measured using a luminometer (EnVision plate reader, Perkin Elmer). Process data through Genedata-Screener tool. Relative IC50 values are determined using luminescence units by calculating percent inhibition with respect to on-plate “MIN” and “MAX” controls. Data was analyzed using a 4-parameter nonlinear logistic equation (four-parameter logistic concentration-response curve): Y=bot+[(top−bot)/1+(x/IC50)slope] where Y=% inhibition, X=concentration yielding y % inhibition, Bottom=minimum value of y attained by curve, Top=maximum value of y attained by curve and Slope=steepness of curve at IC50. % Inh=[(median Max−x/median Max−median Min)]·100 IC50: concentration of compound that reduces a given response (ligand binding, enzyme response) by 50%. IC50 relative: concentration giving half the compound's maximum response.
A general note: ADP-Glo first removes unused ATP, then detects ADP through luciferase.

Assay [2] has as its target T2, PI3K-α (PIK3CA) H1047R mutant, p110α/p85α complex (Homo sapiens, UniProt P42336, H1047R).
T2 construct: Recombinant, catalytically active human full length PIK3KA Wild-type and H1047R mutant; 6×His (N); purchased EMD Millipore Sigma 14-792M
Kind of assay: PI3K-alpha kinase (PIK3CA) biochemical activity, ADP-Glo, H1047R mutant. The following applies: Soy PI lipid substrate.
From the text: as §1, §2

T2 sequence (P42336 whole entry H1047R): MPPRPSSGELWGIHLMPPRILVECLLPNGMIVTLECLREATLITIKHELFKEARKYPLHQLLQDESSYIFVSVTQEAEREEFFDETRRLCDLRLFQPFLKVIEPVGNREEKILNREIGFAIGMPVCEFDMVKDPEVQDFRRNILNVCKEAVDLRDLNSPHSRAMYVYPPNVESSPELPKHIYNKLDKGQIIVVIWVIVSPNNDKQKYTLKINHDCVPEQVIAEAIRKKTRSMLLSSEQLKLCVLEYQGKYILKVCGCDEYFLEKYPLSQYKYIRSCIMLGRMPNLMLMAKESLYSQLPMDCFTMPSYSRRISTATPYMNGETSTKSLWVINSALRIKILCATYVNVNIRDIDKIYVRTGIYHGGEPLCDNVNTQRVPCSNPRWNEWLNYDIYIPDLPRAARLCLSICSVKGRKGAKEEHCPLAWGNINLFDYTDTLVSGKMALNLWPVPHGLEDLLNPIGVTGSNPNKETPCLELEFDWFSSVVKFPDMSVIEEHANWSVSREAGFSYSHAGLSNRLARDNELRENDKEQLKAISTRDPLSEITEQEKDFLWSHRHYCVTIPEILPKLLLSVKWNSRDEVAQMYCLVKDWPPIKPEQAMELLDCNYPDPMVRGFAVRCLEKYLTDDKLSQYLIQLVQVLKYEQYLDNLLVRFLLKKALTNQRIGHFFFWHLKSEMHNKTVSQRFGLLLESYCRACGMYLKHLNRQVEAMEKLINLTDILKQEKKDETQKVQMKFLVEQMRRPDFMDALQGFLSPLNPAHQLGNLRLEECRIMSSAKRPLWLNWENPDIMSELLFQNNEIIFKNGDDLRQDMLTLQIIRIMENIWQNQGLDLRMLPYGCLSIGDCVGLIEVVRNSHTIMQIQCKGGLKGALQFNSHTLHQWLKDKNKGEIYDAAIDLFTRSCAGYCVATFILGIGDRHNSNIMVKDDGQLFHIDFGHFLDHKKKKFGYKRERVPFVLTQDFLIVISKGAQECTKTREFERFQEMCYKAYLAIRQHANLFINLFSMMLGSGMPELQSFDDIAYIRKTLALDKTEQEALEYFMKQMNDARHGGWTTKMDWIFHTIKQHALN
T2 sequence (P27986 whole entry partner): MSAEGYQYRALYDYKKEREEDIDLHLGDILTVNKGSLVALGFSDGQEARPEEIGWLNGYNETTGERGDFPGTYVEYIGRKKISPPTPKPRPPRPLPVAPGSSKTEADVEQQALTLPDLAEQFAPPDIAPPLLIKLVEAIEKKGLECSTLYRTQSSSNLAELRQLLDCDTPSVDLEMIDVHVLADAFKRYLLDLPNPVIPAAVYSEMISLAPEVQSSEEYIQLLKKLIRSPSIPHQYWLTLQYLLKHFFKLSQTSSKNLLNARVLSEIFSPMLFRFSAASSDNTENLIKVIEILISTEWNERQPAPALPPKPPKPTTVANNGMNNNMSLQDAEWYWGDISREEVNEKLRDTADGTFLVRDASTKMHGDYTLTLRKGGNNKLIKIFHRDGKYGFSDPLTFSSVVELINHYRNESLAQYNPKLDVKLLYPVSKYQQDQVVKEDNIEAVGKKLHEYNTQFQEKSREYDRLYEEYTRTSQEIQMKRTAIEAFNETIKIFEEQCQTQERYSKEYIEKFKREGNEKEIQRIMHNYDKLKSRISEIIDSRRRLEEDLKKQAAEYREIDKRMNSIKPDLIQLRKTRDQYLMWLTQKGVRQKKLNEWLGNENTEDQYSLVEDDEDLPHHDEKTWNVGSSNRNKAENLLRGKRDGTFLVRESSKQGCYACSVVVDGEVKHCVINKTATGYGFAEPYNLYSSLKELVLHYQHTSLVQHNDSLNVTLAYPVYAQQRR

For orientation: IC50 means the concentration needed to halve the response being measured. A low value points to inhibition by little substance. Take `Cc1cc(C(C)Nc2ccccc2C(=O)O)c2oc(-n3ncc4cc(F)ccc43)cc(=O)c2c1` (single isomer, unassigned) [Example 89, 2-[1-[2-(5-Fluoroindazol-1-yl)-6-methyl-4-oxo-chromen-8-yl]ethylamino]benzoic acid]: the concentration for half-maximal inhibition (IC50) was 1 to 5 µM in assay [1] and < 0.5 µM in assay [2].
Regarding `Cc1cc(C(C)Nc2ccccc2C(=O)O)c2oc(-n3cc4ccccc4n3)cc(=O)c2c1` (single isomer, unassigned) [Example 50, 2-[1-(2-Indazol-2-yl-6-methyl-4-oxo-chromen-8-yl)ethylamino]benzoic acid], the half-maximal inhibitory concentration (IC50) in assay [1] was 1 to 5 µM; in assay [2], < 0.5 µM.
For `Cc1cc(C(C)Nc2ccccc2C(=O)O)c2oc(-c3ccc4c(c3)CN(C)C4=O)cc(=O)c2c1` (stereo not drawn) [Example 30, 2-[1-[6-Methyl-2-(2-methyl-1-oxo-isoindolin-5-yl)-4-oxo-chromen-8-yl]ethylamino]benzoic acid], the IC50 in assay [1] was 1 to 5 µM; in assay [2], < 0.5 µM.
On to `Cc1cc(C(C)Nc2ccccc2C(=O)O)c2oc(-c3ccc4c(c3)ncn4C)cc(=O)c2c1` (single isomer, unassigned) [Example 166, 2-[1-[6-Methyl-2-(1-methylbenzimidazol-5-yl)-4-oxo-chromen-8-yl]ethylamino]benzoic acid], for which the 50% inhibitory concentration (IC50) is 5 to 10 µM in assay [1] and < 0.5 µM in assay [2].
`Cc1cc(C(C)Nc2ccccc2C(=O)O)c2oc(-c3ccc4c(c3)CN(C)C4=O)c(C)c(=O)c2c1` (single isomer, unassigned) [Example 137, 2-[1-[3,6-Dimethyl-2-(2-methyl-1-oxo-isoindolin-5-yl)-4-oxo-chromen-8-yl]ethylamino]benzoic acid]: the IC50 is 1 to 5 µM in assay [1] and < 0.5 µM in assay [2].
`Cc1cc(C(C)Nc2ccccc2C(=O)O)c2oc(-n3cnc4ccccc43)cc(=O)c2c1` (single isomer, unassigned) [Example 84, 2-[1-[2-(Benzimidazol-1-yl)-6-methyl-4-oxo-chromen-8-yl]ethylamino]benzoic acid]: the figures for the half-inhibitory concentration (IC50) in assay [1] and in assay [2] were 5 to 10 µM and < 0.5 µM, respectively.
For `Cc1cc(C(C)Nc2ccccc2C(=O)O)c2oc(-c3cccc4c3OCO4)cc(=O)c2c1` (single isomer, unassigned) [Example 45, 2-[1-[2-(1,3-Benzodioxol-4-yl)-6-methyl-4-oxo-chromen-8-yl]ethylamino]benzoic acid], the IC50 in assay [1] and in assay [2] was < 0.5 µM in each case.
For the compound `Cc1cc(C(C)Nc2ccccc2C(=O)O)c2oc(-c3cn(C)c4ccccc34)c(C)c(=O)c2c1` (single isomer, unassigned) [Example 140, 2-[1-[3,6-Dimethyl-2-(1-methylindol-3-yl)-4-oxo-chromen-8-yl]ethylamino]benzoic acid], the IC50 is 1 to 5 µM in assay [1] and < 0.5 µM in assay [2].
Taken in the same sequence, the figures for `Cc1cc(C(C)Nc2ccccc2C(=O)O)c2oc(-n3nnc4ccccc43)cc(=O)c2c1` (single isomer, unassigned) [Example 85, 2-[1-[2-(Benzotriazol-1-yl)-6-methyl-4-oxo-chromen-8-yl]ethylamino]benzoic acid] were 1 to 5 µM and < 0.5 µM.
As for `Cc1cc(C(C)Nc2ccccc2C(=O)O)c2oc(-c3ccc4nccn4n3)cc(=O)c2c1` (stereo not drawn) [Example 15, 2-[1-(2-Imidazo[1,2-b]pyridazin-6-yl-6-methyl-4-oxo-chromen-8-yl)ethylamino]benzoic acid], the IC50 in assay [1] was 1 to 5 µM; in assay [2], < 0.5 µM.
Taken in the same sequence, the figures for `Cc1cc(C(C)Nc2ccccc2C(=O)O)c2oc(-n3ncc4ncccc43)cc(=O)c2c1` (single isomer, unassigned) [Example 48, 2-[1-(6-Methyl-4-oxo-2-pyrazolo[4,3-b]pyridin-1-yl-chromen-8-yl)ethylamino]benzoic acid] were < 0.5 µM and < 0.5 µM.
For `Cc1cc(C(C)Nc2ccccc2C(=O)O)c2oc(-c3ccc4c(cnn4CC4COC4)c3)cc(=O)c2c1` (single isomer, unassigned) [Example 138, 2-[1-[6-Methyl-2-[1-(oxetan-3-ylmethyl)indazol-5-yl]-4-oxo-chromen-8-yl]ethylamino]benzoic acid] the same measures were > 10 µM and 0.5 to 1 µM.
`Cc1cc(C(C)Nc2ccccc2C(=O)O)c2oc(-c3ccc4nc(C)cn4n3)cc(=O)c2c1` (single isomer, unassigned) [Example 107, 2-[1-[6-Methyl-2-(2-methylimidazo[1,2-b]pyridazin-6-yl)-4-oxo-chromen-8-yl]ethylamino]benzoic acid]: the IC50 in assay [1] lay in the range of 1 to 5 µM; in assay [2], 0.5 to 1 µM.
With `Cc1cc(C(C)Nc2ccccc2C(=O)O)c2oc(-c3ccn4cnnc4c3)cc(=O)c2c1` (single isomer, unassigned) [Example 161, 2-[1-[6-Methyl-4-oxo-2-([1,2,4]triazolo[4,3-a]pyridin-7-yl)chromen-8-yl]ethylamino]benzoic acid], the values for the half-maximal inhibitory concentration (IC50) in assay [1] and in assay [2] were > 10 µM and 0.5 to 1 µM, respectively.
Taken in the same sequence, the figures for `Cc1cc(C(C)Nc2ccccc2C(=O)O)c2oc(-c3ccn4c(C)nnc4c3)cc(=O)c2c1` (single isomer, unassigned) [Example 77, 2-[1-[6-Methyl-2-(3-methyl-[1,2,4]triazolo[4,3-a]pyridin-7-yl)-4-oxo-chromen-8-yl]ethylamino]benzoic acid] were 5 to 10 µM and < 0.5 µM.
With `Cc1cc(C(C)Nc2ccccc2C(=O)O)c2oc(-c3cn4ccccc4n3)cc(=O)c2c1` (single isomer, unassigned) [Example 66, 2-[1-(2-Imidazo[1,2-a]pyridin-2-yl-6-methyl-4-oxo-chromen-8-yl)ethylamino]benzoic acid], the half-maximal inhibitory concentration (IC50) lay in the range of 5 to 10 µM in assay [1] and 1 to 5 µM in assay [2].
In the case of `Cc1nc2ccc(-c3cc(=O)c4cc(C(F)(F)F)cc(C(C)Nc5ccc(Cl)nc5C(=O)O)c4o3)cc2s1` (single isomer, unassigned) [Example 167, 6-Chloro-3-[1-[2-(2-methyl-1,3-benzothiazol-6-yl)-4-oxo-6-(trifluoromethyl)chromen-8-yl]ethylamino]pyridine-2-carboxylic acid], the results for the IC50 in assay [1] and in assay [2] were 1 to 5 µM and < 0.5 µM, respectively.
Taken in the same sequence, the figures for `CC(Nc1cccnc1C(=O)O)c1cc(C(F)(F)F)cc2c(=O)cc(-c3cc4ccccc4[nH]3)oc12` (stereo not drawn) [Example 185, 3-[1-[2-(1H-Indol-2-yl)-4-oxo-6-(trifluoromethyl)chromen-8-yl]ethylamino]pyridine-2-carboxylic acid] were > 10 µM and > 10 µM.
For `Cc1cn2cc(-c3oc4c(C(C)Nc5ccccc5C(=O)O)cc(F)cc4c(=O)c3C)ccc2n1` (single isomer, unassigned) [Example 124, 2-[1-[6-Fluoro-3-methyl-2-(2-methylimidazo[1,2-a]pyridin-6-yl)-4-oxo-chromen-8-yl]ethylamino]benzoic acid] the same measures were 0.5 to 1 µM and < 0.5 µM.
Take `Cc1cc(C(C)Nc2ccccc2C(=O)O)c2oc(-c3ccc4c(cnn4CC(C)(C)O)c3)cc(=O)c2c1` (single isomer, unassigned) [Example 123, 2-[1-[2-[1-(2-Hydroxy-2-methyl-propyl)indazol-5-yl]-6-methyl-4-oxo-chromen-8-yl]ethylamino]benzoic acid]: the concentration for half-maximal inhibition (IC50) in assay [1] is 1 to 5 µM; in assay [2] it was < 0.5 µM.
Taken in the same sequence, the figures for `Cc1cc(C(C)Nc2ccccc2C(=O)O)c2oc(-c3ccc4c(n3)N(C)C(=O)C4)cc(=O)c2c1` (single isomer, unassigned) [Example 141, 2-[1-[6-Methyl-2-(1-methyl-2-oxo-3H-pyrrolo[2,3-b]pyridin-6-yl)-4-oxo-chromen-8-yl]ethylamino]benzoic acid] were 1 to 5 µM and < 0.5 µM.
